In patent US20230203060A1 (GENFLEET THERAPEUTICS (SHANGHAI) INC., priority 2020, published 2023):

What was measured:
Assay type in all cases: cell-based, human
[1] = tested on: KRAS G12C mutant NCI-H358 cells; experiment: Cell proliferation inhibition experiment, 3D spheroid, CellTiter-Glo, NCI-H358; settings: Homo sapiens, NCI-H358, 120 h, NCI-H358 (KRAS G12C mutant) 3D spheroid, 5 days with compound, CellTiter-Glo; read-out: H358 IC50
Outline: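 Luminescence (CellTiter-Glo, 30 min incubation) was read after 5 days of compound treatment of overnight-formed spheroids of 800 H358 or 400 A549 cells in 2% FBS medium. Inhibition relative to DMSO and blank controls was fitted with a four-parameter model to yield IC50.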

[2] = tested on: A549 cells (KRAS G12S mutant); experiment: Cell proliferation inhibition experiment, 3D spheroid, CellTiter-Glo, A549; settings: Homo sapiens, A549, 120 h, A549 (KRAS G12S mutant) 3D spheroid, 5 days with compound, CellTiter-Glo; read-out: A549 IC50
Description: Raw materials and instruments: NCI-H358 purchased from ATCC; article number: CRL-5807; batch number: 70010825; A549 purchased from ATCC; article number: CCL-185; batch number: 70007820; RPMI1640 purchased from Gibco; article number: 11875-093; batch number: 2152748; F-12K purchased from Gibco; article number: 21127-022; batch number: 2185853; FBS purchased from Gibco; article number: 10099-141; batch number: 2109290CP; PS purchased from Gibco; article number: 15140-122; batch number: 2145451; Trypsin-EDTApurchased from Gibco; article number: 25200-072; batch number: 2085552; CellTiter Glo working solution purchased from Promega; article number: G9683; batch number: 398478; DMSO purchased from VWR AMRESCO; article number: 0231-500ML; batch number: 18C0656168; 384-well spheroid plate purchased from Corning; article number: 3830; batch number: 27519032; white opaque 384-well plate purchased from Corning; article number: 3570; batch number: 26819023; microplate reader purchased from PerkinElmer; model: Envision MLD2105-0020; equipment number 1050369.
NCI-H358 is a KRAS G12C mutant human non-small cell lung cancer cell line, cultured in 10% FBS RPMI-1640+1% PS culture medium; and A549 is a KRAS G12S mutant human lung adenocarcinoma cell line, cultured in 10% FBS F-12K+1% PS culture medium. Cells at logarithmic growth stage were taken, digested with trypsin-EDTA, then collected and counted. H358 was adjusted to 1.8 E4 cells/mL with 2% FBS RPMI-1640 culture medium, and A549 was adjusted to 8.9 E3 cells/mL with 2% FBS F-12K culture medium; 800 (45 μL) H358 or 400 (45 μL) A549 were inoculated respectively in a 384-well spheroid plate and cultured overnight to establish a 3D cell model. A 3.16-fold gradient concentration stock solution of 1000× compound was prepared with DMSO, and diluted 100-fold to 10× compound stock solution with 2% FBS culture medium. On the second day after cell inoculation, 5 μL of 10× compound stock solution was added to each cell culture well, with a final concentration of 1× and a DMSO content of 0.1%. DMSO was used as experimental control (control), and 2% FBS culture medium was used as blank control (blank). After 5 days of compound cell culture, 25 μL of CellTiter-Glo working solution was added to each well, mixed well at 400 rpm and incubated for 30 minutes. After standing at room temperature for 30 minutes, 40 μL of the mixed solution was transferred to a white opaque 384-well plate, and the luminescence chemiluminescence value was read with a microplate reader. The cell proliferation inhibition rate IR (%)=(RLU control -RLU compound)/(RLU control -RLU blank) x100% was calculated. The gradient dilution concentration of the compound and the corresponding cell proliferation inhibition rate were fitted by Prism 6 four-parameter method, and the IC50 value was calculated. The inhibitory activity of the compounds prepared in the above embodiments of the present disclosure on KRAS G12C mutant NCI-H358 cells was 0.0001 μM to 0.5 μM; the inhibitory activity of some compounds on KRAS G12C mutant NCI-H358 cells was 0.001 μM to 0.1 μM or 0.001 μM to 0.05 μM.

[3] = tested on: KRAS G12C mutant MIA PaCa-2 cells; experiment: Cell proliferation inhibition experiment, 3D spheroid, CellTiter-Glo, MIA PaCa-2; settings: Homo sapiens, MIA PaCa-2, 120 h, 3D cell model in 384-well spheroid plate, 5 days, CellTiter-Glo; read-out: MIA-PaCa2 IC50
Description: Raw materials and instruments: MIA PaCa-2 purchased from ATCC; article number: CRL-1420; batch number: 63143594; DMEM purchased from Gibco; article number: 11995-065; batch number: 2186878; FBS purchased from Gibco; article number: 10099-141; batch number: 2109290CP; Horse Serum purchased from Gibco; article number: 16050-122; batch number: 1818976; PS purchased from Gibco; article number: 15140-122; batch number: 2145451; Trypsin-EDTA purchased from Gibco; article number: 25200-072; batch number: 2085552; CellTiter Glo working solution purchased from Promega; article number: G9683; batch number 398478; DMSO purchased from VWR AMRESCO; article number: 0231-500ML; batch number: 18C0656168; 384-well spheroid plate purchased from Corning; article number: 3830; batch number: 27519032; white opaque 384-well plate purchased from Corning; article number: 3570; batch number: 26819023; microplate reader purchased from PerkinElmer; model: Envision MLD2105-0020; equipment number 1050369.
MIA PaCa-2 is a KRAS G12C mutant human pancreatic cancer cell line, cultured in 10% FBS+2.5% Horse Serum DMEM+1% PS culture medium; cells at logarithmic growth stage were taken, digested with trypsin-EDTA, then collected and counted, and 200 MIA PaCa-2 were inoculated in a 384-well spheroid plate, respectively, and cultured overnight to establish a 3D cell model. A 3.16-fold gradient concentration stock solution of 1000× compound was prepared with DMSO, and diluted 100-fold to 10× compound stock solution with culture medium. On the second day after cell inoculation, 10× compound stock solution was added to each cell culture well, with a final concentration of 1× and a DMSO content of 0.1%. DMSO was used as experimental control (control), and culture medium was used as blank control (blank). After 5 days of compound cell culture, 30 μL of CellTiter-Glo working solution was added to each well, mixed well and incubated for 30 minutes. After standing at room temperature for 30 minutes, 40 μL of the mixed solution was transferred to a white opaque 384-well plate, and the luminescence chemiluminescence value was read with a microplate reader. The cell proliferation inhibition rate IR (%)=(RLU control -RLU compound)/(RLU control−RLU blank)×100% was calculated. The gradient dilution concentration of the compound and the corresponding cell proliferation inhibition rate were fitted by XLFit four-parameter method, and the IC50 value was calculated. The inhibitory activity of the compounds prepared in the above embodiments of the present disclosure on KRAS G12C mutant MIA PaCa-2 cells was 0.0001 μM to 0.5 μM; the inhibitory activity of some compounds on KRAS G12C mutant MIA PaCa-2 cells was 0.001 μM to 0.1 μM or 0.001 μM to 0.05 μM.

| SMILES | IC50 [1] [nM] | IC50 [2] [nM] | IC50 [3] [nM] |
| --- | --- | --- | --- |
| C=CC(=O)N1CCN2C(=O)c3c(N4CCC5(COC5)C4)nc(-c4c(O)cccc4F)c(Cl)c3OC[C@H]2C1 [Z45, (6aR)-8-acryloyl-4-chloro-3-(2-fluoro-6-hydroxyphenyl)-1-(2-oxa-6-azaspiro[3.4]octan-6-yl)-6,6a,7,8,9,10-hexahydro-12H-pyrazino[2,1-c]pyrido[3,4-f][1,4]oxazepin-12-one] | 46 | > 20000 | 60 |
| C=CC(=O)N1CCN2Cc3c(NC(C)(C)C)nc(-c4c(O)cccc4F)c(Cl)c3OC[C@H]2C1 [Z71, 1-((6aR)-1-(tert-butylamino)-4-chloro-3-(2-fluoro-6-hydroxyphenyl)-6a,7,9,10-tetrahydro-12H-pyrazino[2,1-c]pyrido[3,4-f][1,4]oxazepin-8(6H)-yl)prop-2-en-1-one] | 275 | > 10000 | 467 |
| C=CC(=O)N1CCN2C(=O)c3c(N4CCOCC4)nc(-c4c(O)cccc4F)c(Cl)c3OC[C@H]2C1 [Z10, (6aR)-8-acryloyl-4-chloro-3-(2-fluoro-6-hydroxyphenyl)-1-morpholino-6,6a,7,8,9,10-hexahydro-12H-pyrazino[2,1-c]pyrido[3,4-f][1,4]oxazepin-12-one] | 39 | > 20000 | 67 |
| C=CC(=O)N1CCN2C(=O)c3c(N[C@@H](C)c4ccccc4)nc(-c4c(O)cccc4F)c(Cl)c3OC[C@H]2C1 [Z29, (6aR)-8-acryloyl-4-chloro-3-(2-fluoro-6-hydroxyphenyl)-1-(((S)-1-phenylethyl)amino)-6,6a,7,8,9,10-hexahydro-12H-pyrazino[2,1-c]pyrido[3,4-f][1,4]oxazepin-12-one] | 30 | 2430 | 77 |
| C=CC(=O)N1CCN2C(=O)c3c(-c4ccnn4C(C)C)nc(-c4c(O)cccc4F)c(Cl)c3OC[C@H]2C1 [Z77, (6aR)-8-acryloyl-4-chloro-3-(2-fluoro-6-hydroxyphenyl)-1-(1-isopropyl-1H-pyrazol-5-yl)-6,6a,7,8,9,10-hexahydro-12H-pyrazino[2,1-c]pyrido[3,4-f][1,4]oxazepin-12-one] | 157 | > 20000 | 365 |
| C=CC(=O)N1CCN2C(=O)c3c(N4CCN(C)CC45CC5)nc(-c4c(O)cccc4F)c(Cl)c3OC[C@H]2C1 [Z57, (6aR)-8-acryloyl-4-chloro-3-(2-fluoro-6-hydroxyphenyl)-1-(7-methyl-4,7-diazaspiro[2.5]octan-4-yl)-6,6a,7,8,9,10-hexahydro-12H-pyrazino[2,1-c]pyrido[3,4-f][1,4]oxazepin-12-one] | 134 | > 30000 | 118 |
| C=CC(=O)N1CCN2C(=O)c3c(N4CCN(C)CC4)nc(-c4c(O)cccc4F)c(Cl)c3OC[C@H]2C1 [Z30, (6aR)-8-acryloyl-4-chloro-3-(2-fluoro-6-hydroxyphenyl)-1-(4-methylpiperazin-1-yl)-6,6a,7,8,9,10-hexahydro-12H-pyrazino[2,1-c]pyrido[3,4-f][1,4]oxazepin-12-one] | 40 | > 20000 | 41 |
| C=CC(=O)N1CCN2C(=O)c3c(N4CCC5(CCCC5)C4)nc(-c4c(O)cccc4F)c(Cl)c3OC[C@H]2C1 [Z34, (6aR)-8-acryloyl-4-chloro-3-(2-fluoro-6-hydroxyphenyl)-1-(2-azaspiro[4.4]nonan-2-yl)-6,6a,7,8,9,10-hexahydro-12H-pyrazino[2,1-c]pyrido[3,4-f][1,4]oxazepin-12-one] | 32 | 4910 | 81 |
| C=CC(=O)N1CCN2C(=O)c3c(N4CC5CN(C)CC5C4)nc(-c4c(O)cccc4F)c(Cl)c3OC[C@H]2C1 (stereo partly drawn) [Z60, (6aR)-8-acryloyl-4-chloro-3-(2-fluoro-6-hydroxyphenyl)-1-(5-methylhexahydropyrrolo[3,4-c]pyrrol-2 (1H)-yl)-6,6a,7,8,9,10-hexahydro-12H-pyrazino[2,1-c]pyrido[3,4-f][1,4]oxazepin-12-one] | 125 | > 30000 | 94 |
| C=CC(=O)N1CCN2C(=O)c3c(N4CCCC45CCOC5)nc(-c4c(O)cccc4F)c(Cl)c3OC[C@H]2C1 (stereo partly drawn) [Z58, (6aR)-8-acryloyl-4-chloro-3-(2-fluoro-6-hydroxyphenyl)-1-(7-oxa-1-azaspiro[4.4]nonan-1-yl)-6,6a,7,8,9,10-hexahydro-12H-pyrazino[2,1-c]pyrido[3,4-f][1,4]oxazepin-12-one] | 145 | > 5000 | 237 |
| C=CC(=O)N1CCN2C(=O)c3c(O[C@@H]4CCN(C)C4)nc(-c4c(O)cccc4F)c(Cl)c3OC[C@H]2C1 [Z64, (6aR)-8-acryloyl-4-chloro-3-(2-fluoro-6-hydroxyphenyl)-1-(((R)-1-methylpyrrolidin-3-yl)oxy)-6,6a,7,8,9,10-hexahydro-12H-pyrazino[2,1-c]pyrido[3,4-f][1,4]oxazepin-12-one] | 287 | > 30000 | 268 |
